Assay results taken from ChEMBL document CHEMBL1131929, “New lead compounds for brassinosteroid biosynthesis inhibitors” (1999).

Key:
Assay type in all cases: functional
[1] = system: Oryza sativa; assay: Compound was tested for its activity in rice stem elongation test at a concentration of 1 uM Stem length was measured after 7 days of transplantation
[2] = system: Lepidium sativum; assay: Inhibitory activity on cress growth at a concentration of 5 uM
[3] = system: Lepidium sativum; assay: Inhibitory activity on cress growth at a concentration of 0.5 uM
[4] = system: Lepidium sativum; assay: Inhibitory activity on cress growth at a concentration of 0.1 uM
[5] = system: Lepidium sativum; assay: Inhibitory activity on cress growth at a concentration of 0.05 uM
[6] = system: Lepidium sativum; assay: Inhibitory activity on cress growth at a concentration of 1 uM

Compound: CC(C)(C)C(O)C(CCCOc1ccccc1)n1cncn1 (centres undefined)
- Rice stem length [1]: 2.1 cm

Compound: CCCCOc1ccc(/C=C(\C(O)C(C)(C)C)n2cncn2)cc1 (centres undefined)
- Rice stem length [1]: 2.4 cm

Compound: CC(C)(C)C(O)/C(=C\c1ccc(Cl)cc1)n1cncn1 (centres undefined)
- Hypocotyl length [2]: 0.5 cm
- Rice stem length [1]: 1.4 cm
- Hypocotyl length [3]: ~0.51 cm
- Hypocotyl length [4]: ~0.52 cm
- Hypocotyl length [5]: 1 cm
- Hypocotyl length [6]: ~0.51 cm

Compound: CC(C)(C)C(O)C(Cc1ccc(Cl)cc1)n1cncn1 (centres undefined)
- Rice stem length [1]: 1 cm

Compound: CC(C)(C)C(O)/C(=C\c1ccc(Cl)cc1Cl)n1cncn1 (centres undefined)
- Rice stem length [1]: 1.2 cm

Compound: OC(/C(=C\c1ccc(Cl)cc1)n1cncn1)c1ccccc1 (centres undefined)
- Rice stem length [1]: 2.7 cm
- Hypocotyl length [3]: 1 cm
- Hypocotyl length [4]: 1.75 cm
- Hypocotyl length [5]: ~2 cm
- Hypocotyl length [6]: ~0.75 cm

Compound: CC(C)(C)C(O)C(CCc1ccccc1)n1cncn1 (centres undefined)
- Rice stem length [1]: ~2 cm

Compound: CC(O)(c1ccccc1)C(Cc1ccc(Cl)cc1)n1cncn1 (centres undefined)
- Hypocotyl length [2]: 0.5 cm
- Rice stem length [1]: ~2.7 cm
- Hypocotyl length [3]: 1.25 cm
- Hypocotyl length [4]: ~2.25 cm
- Hypocotyl length [5]: ~2 cm
- Hypocotyl length [6]: 0.75 cm

Compound: COc1cccc(/C=C(\C(O)C(C)(C)C)n2cncn2)c1 (centres undefined)
- Rice stem length [1]: 2.7 cm

Compound: OC(c1ccccc1)C(Cc1ccc(Cl)cc1)n1cncn1 (centres undefined)
- Rice stem length [1]: ~2.6 cm
